Laboratory results from patent EP0230013A1, “New anthracycline derivatives, uses thereof as antitumor agent and production thereof” (ZAIDAN HOJIN BISEIBUTSU KAGAKU KENKYU KAI, priority 1985, dated 1987).
Read-outs that look alike come from different tables or passages of the source.

Experiments:
Leukemia P 388 = conditions: cited from earlier work
[1] = Acid hydrolysis of the glycoside linkage, analysed by TLC (Test 2); format: physicochemical
From the text: A further advantage of the anthracycline derivatives of formula (I) according to this invention is in that the susceptibility of the glycoside linkage to be broken by acid hydrolysis is very low. This is, we believe, to be one of reasons why the compounds of this invention are of low toxicity. […] Of course, a high chemical stability of a compound in vitro is not always related to its stability against hydrolysis in vivo, but it may be assumed in view of high anticancer effects in vivo of the compounds of this invention that the glycoside linkage of those compounds is of high stability in vivo, too. In any case, it is true that such high chemical stability of the glycoside linkage of the compounds of this invnetion is advantageous in that it makes the handling of those compounds easy in chemical applications. Test 2 given below illustrates the high stability of the glycoside linkage of the compounds of this invention.
Daunomycin (I mg) was dissolved in a mixture (0.1 ml) of 0.2 N^*HCI-80% CH3CN-H,O (^* the 0.2 N concentration of HCI being of the said mixture) and the solution was heated in an oil bath at 61 -62°C for 30 minutes to cause the hydrolysis. […] The reaction solution was allowed to stand at room temperature to deposit daunomycinone as red crystals.
FTDM (0.7 mg) was suspended in a mixture (0.1 ml) of 0.2 N HCI-80% CH,CN-H20 and the suspension was stirred in an oil bath at 61 -62°C for 30 minutes.
A futher amount (0.3 ml) of the mixture of 0.2N HCI-80% CH3CN-H20 was added to the reaction mixture, when the mixture substantially became a solution with a little amount of insolubles. Then, it was heated to 61-62°C under stirring to give a homogeneous solution.

Leukemia L-1210 cells = test: Antitumor activity on leukemia in mice caused by Leukemia L-1210 cells (Test I); format: in vivo; design: key: *: shows that a toxicity or its sign of the compound tested in the animals tested such as death due to toxicity or weight loss was observed; conditions: L-1210 mice
Protocol: Antitumor activity on leukemia in CDF, mice caused by Leukemia L-1210 cells
In this test, Compound Nos. I and 2 of this invention were assessed in comparison with daunomycin and adriamycin on their tumor inhibitory activity against leukemia in mice. Thus, CDF, mice were intraperitoneally transplanted with cells of Leukemia L-1210 (I ^x 10^5 cells/mouse). From 24 hours after i.p. transplantation of L 1210 cells, each compound to be tested was administered intraperitoneally for 9 consecutive days at once per day. Observation was made for 60 days where survival days of each mouse tested were recorded and percentage increase in lifespan of the treated mice, in comparison with control test wherein mice were treated only, with the administration of physiological saline, was calculated as T/C % where T is the mean survival days of the treated animals and C is the mean survival days of the untreated control animals.The test results are shown in Table I.

Leukemia L-1210 = conditions: dosage of 25 mg/kg, single dose per day, intraperitoneally for 9 days, Leukemia L-1210 mice; cited from earlier work
[2] = 0.2 N HCl-80% CH3CN-H2O, 61 -62°C (about 60°C), 30 minutes
[3] = Dose 5 mg/kg/day i.p. for 9 days

In the case of COc1cccc2c1C(=O)c1c(O)c3c(c(O)c1C2=O)C[C@@](O)(C(C)=O)C[C@@H]3O[C@@H]1O[C@@H](C)[C@@H](OC(C)=O)[C@@H](OC(C)=O)[C@H]1I [Compound NSC 327,472, 7-O-(3,4-di-O-acetyl-2,6-dideoxy-2-iodo-a-L-talohexopyranosyl)daunomycinone], the “increase (%) of survival days of the Leukemia P 388-inoculated mice treated” value (Leukemia P 388; dosage of 12.5 mg/kg to 25 mg/kg) is listed as 172% and the “increase (%) of survival days of the Leukemia P 388-inoculated mice treated” value (Leukemia P 388; dosage of 150 mg/kg) is listed as 162%.
With COc1cccc2c1C(=O)c1c(O)c3c(c(O)c1C2=O)C[C@@](O)(C(C)=O)C[C@@H]3O[C@H]1C[C@H](N)[C@H](O)[C@H](C)O1 [Daunomycin, daunomycin] the “acid hydrolysis (TLC)” value [1, 2] was “disappearance of the spot of daunomycin”, the “acid hydrolysis (TLC)” value ([1]; 0.2 N HCl-80% CH3CN-H2O, 61 -62°C (about 60°C), 30 minutes, listed as daunomycin) was “completely decomposed” and the “toxicity or its sign (death due to toxicity or weight loss)” value (Leukemia L-1210 cells; Dose 2.5 mg/kg/day i.p. for 9 days) was “*”. For the same compound, the “toxicity or its sign (death due to toxicity or weight loss)” value (Leukemia L-1210 cells; [3]) was “*”.
For COc1cccc2c1C(=O)c1c(O)c3c(c(O)c1C2=O)C[C@@](O)(C(C)=O)C[C@@H]3O[C@@H]1O[C@@H](C)[C@H](OC(C)=O)[C@@H](OC(C)=O)[C@H]1I [Compound NSC 331,962, 7-O-(3,4-di-O-acetyl-2,6-dideoxy-2-iodo-a-L-mannohexopyranosyl) daunomycinone], the “increase (in %) of survival days of the mice treated, compared to the mice untreated (T/C, %)” value (Leukemia P 388; dosage of 50 mg/kg, Leukemia P 388 mice) is listed as 247% and the “increase (in %) of survival days of the mice treated, as compared to the mice untreated (T/C, %)” value (Leukemia L-1210) is listed as 196%.
With COc1cccc2c1C(=O)c1c(O)c3c(c(O)c1C2=O)C[C@@](O)(C(=O)CO)C[C@@H]3O[C@H]1C[C@H](N)[C@H](O)[C@H](C)O1 [Adriamycin, adriamycin] the “toxicity or its sign (death due to toxicity or weight loss)” value (Leukemia L-1210 cells; [3]) was “*”.
For COc1cccc2c1C(=O)c1c(O)c3c(c(O)c1C2=O)C[C@@](O)(C(C)=O)C[C@@H]3O[C@@H]1O[C@@H](C)[C@@H](O)[C@@H](O)[C@H]1F [Compound No. 1, 7-O-(2,6-dideoxy-2-fluoro-α-L-talopyranosyl)daunomycinone], the “acid hydrolysis (TLC)” value [1, 2] was “presence of the spot of FTDM only”, the “acid hydrolysis (TLC)” value ([1]; 0.2N HCl-80% CH3CN-H2O, 61-62°C, further 3 hours) was “the spot of FTDM only” and the “acid hydrolysis (TLC)” value ([1]; 1 N HCl in acetonitrile-water (4:1), 61-62°C (about 60°C), 8 hours, listed as Compound No. I) was “remains substantially as it is,without being decomposed”. For the same compound, the “acid hydrolysis (TLC)” value ([1]; 1 N HCl in acetonitrile-water (4:1), 61-62°C (about 60°C), 8 hours, listed as FTDM) was “a spot of a trace amount of daunomycinone appeared, but most of FTDM was also present as it was”.
